Values of other authors as cited in patent publication US5478816A, “Liquid vitamin formulations containing vitamin D esters” (Bristol-Myers Squibb Company, priority 1993, dated 1995).
Like-named read-outs stand apart in the source and are kept apart here.

Conditions: cited from earlier work

Compound	stability (in corn oil, propylene glycol, and milk)	stability (in propylene glycol when diluted in water)	stability (at a mid-pH)	stability (in an alkaline medium or in the presence of light and air)	stability (in an aqueous environment)	stability (in the presence of minerals)
C=C1CC[C@H](O)C/C1=C/C=C1\CCC[C@]2(C)[C@@H]([C@H](C)/C=C/[C@H](C)C(C)C)CC[C@@H]12 [Vitamin D2]	stable	deteriorate				
vitamin D			stable	slowly destroyed	unstable	unstable
